From EP0636146B1, “TACHYKININ ANTAGONIST TRICYCLIC COMPOUNDS, PREPARATION OF SAME AND PHARMACEUTICAL COMPOSITIONS CONTAINING SUCH COMPOUNDS” (A. MENARINI INDUSTRIE FARMACEUTICHE RIUNITE S.R.L., priority 1992, dated 1997)

Key:
[1] = system: neuroquinine A receptor (receptor NK-2); test: inhibition of NKA-induced contraction of isolated rabbit pulmonary artery; assay type: cell-based; conditions: NKA 3 nM
Procedure: The capacity of the products described in the present invention to interact with the neuroquinine A receptor as agonists or antagonists was assessed using a preparation characterized by the fact that the biological response produced by tachyquinines and correlated peptides was exclusively determined by the neuroquinine A receptor (receptor NK-2). The said preparation consisted of isolated rabbit pulmonary artery affected by a dose-dependent contraction brought about by tachyquinines (Rovero et al., Neuropeptides, 13, 263-270, 1989). The determination of the peptide activity in the test preparation was based on the use of an NKA concentration (3 nM) causing a response equal to 45% of max. response. The peptides considered herein were added to the preparation in growing concentrations. Their activity was assessed as inhibition of response to NKA.

[2] = system: P substance receptor (receptor NK-1); test: inhibition of SP methyl ester-induced contraction of isolated guinea pig ileum; assay type: cell-based; design: dose or concentration left out as unconfirmed; conditions: SP methyl ester 10 nm
Procedure: The capacity of the products described herein to interact with the P substance receptor (receptor NK-1) was assessed through an in vitro test, where the biological response produced by tachyquinines and correlated peptides was exclusively determined by the P substance receptor. The test preparation consisted of isolated guinea pig ileum affected by a dose-dependent contraction brought about by tachyquinines (Lee et al., Schmied. Arch. Pharmacol., 318, 281-287, 1982). The determination of the activity of the products as per the present invention in the test preparation was based on the use of an SP methyl ester concentration (10 nm) causing a response equal to 45% of max. response (S. Dion et al., Life Sci., 41, 2269-2278, 1987). The products considered herein were added to the preparation in growing concentrations. Their activity was assessed as inhibition of response to SP with satisfactory results.

cyclo(MDWFL) [compound 1]
inhibition of response to neuroquinine A [1]: 100% | inhibition of response to SP methyl ester [2]: 100%
